The test concerns NF-κB activation. Nature of the test: Inhibitory activity against NF-κB activation, luciferase reporter assay under TNF-α stimulation. Conditions: HepG2 cells, TNF-α 40 ng/ml, 4 hours; for inhibition at 1 µg/mL / inhibition at 10 µg/mL: Homo sapiens, read-out: Inhibitory Ratio of NF-κ B Activation(%). It is filed as cell-based, human. The gist of the method:
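HepG2 cells transfected with firefly luciferase reporter carrying five tandem NF-κB sites, incubated 6 to 24 hours, then cultured 4 hours with TNF-α (40 ng/ml) plus test compound. Luminescent luciferase read-out; inhibition expressed relative to activity without compound.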
On the technique in general: Reporter assays use an easily measured gene product as a stand-in for the process of interest.

Bounds are passed on as bounds.

For `O=C(Nc1cc(C(F)(F)F)cc(C(F)(F)F)c1)c1cc(Cl)ccc1OCOC(=O)N1CCOCC1` [Compound 102, 5-Chloro-2-[(morpholinocarbonyl)oxy]methoxy-N-[3,5-bis(trifluoromethyl)phenyl]-benzamide], where the note is “Drug Concentration 1 μg/mL”, the inhibition at 1 µg/mL was 39.1%. For the same molecule, the inhibition at 10 µg/mL (Drug Concentration 10 μg/mL) was determined as 70%.

As for `CCOC(=O)C1CCN(C(=O)OCOc2ccc(Cl)cc2C(=O)Nc2cc(C(F)(F)F)cc(C(F)(F)F)c2)CC1` [Compound 103, 5-Chloro-2-({[4-(ethoxycarbonyl)piperidin-1-yl]carbonyl}oxy)methoxy-N-[3,5-bis(trifluoromethyl)phenyl]benzamide], under “Drug Concentration 1 μg/mL”, the inhibition at 1 µg/mL was determined as 40.4%. In addition, for the setting “Drug Concentration 10 μg/mL”, the inhibition at 10 µg/mL stood at 45.9%.

As to `O=C(Nc1cc(C(F)(F)F)cc(C(F)(F)F)c1)c1cc(Cl)ccc1OCOC(=O)N1CCC(C(=O)O)CC1` [Compound 104], the “Inhibitory Ratio of NF-κ B Activation(%)” value is given as 48.4% (Drug Concentration 1 μg/mL) and 58.8% (Drug Concentration 10 μg/mL).

For the molecule `CCOC(=O)CN(CC(=O)OCC)C(=O)OCOc1ccc(Cl)cc1C(=O)Nc1cc(C(F)(F)F)cc(C(F)(F)F)c1` [Compound 105, 2-({N,N-bis[(ethoxycarbonyl)methyl]carbamoyl}oxy)methoxy-5-chloro-N-[3,5-bis(trifluoromethyl)phenyl]benzamide], the inhibition at 1 µg/mL (Drug Concentration 1 μg/mL) was found to be 71.8%. Where the note is “Drug Concentration 10 μg/mL”, the inhibition at 10 µg/mL was found to be 56%.

For the molecule `O=C(O)CN(CC(=O)O)C(=O)OCOc1ccc(Cl)cc1C(=O)Nc1cc(C(F)(F)F)cc(C(F)(F)F)c1` [Compound 106], the “Inhibitory Ratio of NF-κ B Activation(%)” value worked out at 61.0% (Drug Concentration 1 μg/mL) and 83.5% (Drug Concentration 10 μg/mL).

Consider `O=C(Nc1cc(C(F)(F)F)cc(C(F)(F)F)c1)c1cc(Cl)ccc1OCCO` [Compound 107], for which the “Inhibitory Ratio of NF-κ B Activation(%)” value amounted to 47.4% (Drug Concentration 1 μg/mL) and 52.1% (Drug Concentration 10 μg/mL).

For the molecule `O=C(O)COc1ccc(Cl)cc1C(=O)Nc1cc(C(F)(F)F)cc(C(F)(F)F)c1` [Compound 109], the “Inhibitory Ratio of NF-κ B Activation(%)” value (Drug Concentration 1 μg/mL) was 21.0% and the “Inhibitory Ratio of NF-κ B Activation(%)” value (Drug Concentration 10 μg/mL) was found to be 95.9%.

As to `O=C(COc1ccc(Cl)cc1C(=O)Nc1cc(C(F)(F)F)cc(C(F)(F)F)c1)OCc1ccccc1` [Compound 110, 2-[(benzyloxy)carbonyl]methoxy-5-chloro-N-[3,5-bis(trifluoromethyl)phenyl]-benzamide], the inhibition at 1 µg/mL (Drug Concentration 1 μg/mL) turned out to be 38.5%. For the same molecule, the inhibition at 10 µg/mL (Drug Concentration 10 μg/mL) worked out at 39.2%.

On to `O=C(Nc1cc(C(F)(F)F)cc(C(F)(F)F)c1)c1cc(Cl)ccc1OCN1C(=O)c2ccccc2C1=O` [Compound 111], for which the “Inhibitory Ratio of NF-κ B Activation(%)” value (Drug Concentration 1 μg/mL) is on record as 94.3% and the “Inhibitory Ratio of NF-κ B Activation(%)” value (Drug Concentration 10 μg/mL) came out at 96.0%.

Turning to `CC(=O)OC[C@H]1O[C@@H](Oc2ccc(Cl)cc2C(=O)Nc2cc(C(F)(F)F)cc(C(F)(F)F)c2)[C@H](OC(C)=O)[C@@H](OC(C)=O)[C@@H]1OC(C)=O` [Compound 112], the “Inhibitory Ratio of NF-κ B Activation(%)” value (Drug Concentration 1 μg/mL) is 47.2% and the “Inhibitory Ratio of NF-κ B Activation(%)” value (Drug Concentration 10 μg/mL) is 49.5%.

Turning to `O=c1oc2ccc(Cl)cc2c(=O)n1-c1cc(C(F)(F)F)cc(C(F)(F)F)c1` [Compound 113], the inhibition at 1 µg/mL (Drug Concentration 1 μg/mL) was 96.8%. Moreover, the inhibition at 10 µg/mL (Drug Concentration 10 μg/mL) came out at 97.9%.

For the molecule `O=C1CCC(=O)N(c2cc(C(F)(F)F)cc(C(F)(F)F)c2)C(=O)c2cc(Cl)ccc2O1` [Compound 114], where the note is “Drug Concentration 1 μg/mL”, the inhibition at 1 µg/mL was found to be 97.2%. Further, the inhibition at 10 µg/mL (Drug Concentration 10 μg/mL) was determined as 98.5%.

As for `COC(=O)C1Oc2ccc(Cl)cc2C(=O)N1c1cc(C(F)(F)F)cc(C(F)(F)F)c1` (stereo not drawn) [Compound 115, 6-chloro-3,4-dihydro-4-oxo-3-[3,5-bis(trifluoromethyl)phenyl]-2H-1,3-benzoxazine-2-carboxylic acid methyl ester], the inhibition at 1 µg/mL (Drug Concentration 1 μg/mL) was found to be 41.8%. Besides, the inhibition at 10 µg/mL (Drug Concentration 10 μg/mL) was found to be 92.2%.

Regarding `O=C(O)C1Oc2ccc(Cl)cc2C(=O)N1c1cc(C(F)(F)F)cc(C(F)(F)F)c1` (stereo not drawn) [Compound 116], the inhibition at 1 µg/mL (Drug Concentration 1 μg/mL) worked out at 35.1%. Besides, for the setting “Drug Concentration 10 μg/mL”, the inhibition at 10 µg/mL was 20.1%.

With `COC(=O)CC1(C(=O)OC)Oc2ccc(Cl)cc2C(=O)N1c1cc(C(F)(F)F)cc(C(F)(F)F)c1` (stereo not drawn) [Compound 117], where the note is “Drug Concentration 1 μg/mL”, the inhibition at 1 µg/mL amounted to 34.8%. The inhibition at 10 µg/mL (Drug Concentration 10 μg/mL) was found to be 56.7%.

`CCC(C)(C)c1ccc(Oc2ccccc2)c(-n2c(=O)oc3ccc(Cl)cc3c2=O)c1` [Compound 118, 6-Chloro-3-[5-(1,1-dimethyl)propyl-2-phenoxyphenyl]-3,4-dihydro-2H-1,3-benzoxazine-2,4-dione]: the inhibition at 1 µg/mL (Drug Concentration 1 μg/mL) came to 94%. The inhibition at 10 µg/mL (Drug Concentration 10 μg/mL) came to 97.4%.

As to `O=C(Nc1ccc(-c2ccccc2)cc1)c1cc(C(F)(F)F)ccc1OC(=O)N1CCOCC1` [Compound 119], the “Inhibitory Ratio of NF-κ B Activation(%)” value is, setting by setting: (Drug Concentration 1 μg/mL) greater than 99.9%; (Drug Concentration 10 μg/mL) greater than 99.9%.

Turning to `O=C(Nc1cc(C(F)(F)F)ccc1C(F)(F)F)c1cc(Cl)ccc1OP(=O)([O-])O.[Na+]` [Compound 122], the “Inhibitory Ratio of NF-κ B Activation(%)” value was greater than 99.9% (Drug Concentration 1 μg/mL) and greater than 99.9% (Drug Concentration 10 μg/mL).

Turning to `O=C(Nc1cc(C(F)(F)F)ccc1Cl)c1cc(Cl)ccc1OP(=O)([O-])O.[Na+]` [Compound 125], the “Inhibitory Ratio of NF-κ B Activation(%)” value is given as greater than 99.9% (Drug Concentration 1 μg/mL) and greater than 99.9% (Drug Concentration 10 μg/mL).

With `CC(C)(C)C(=O)c1sc(NC(=O)c2cc(Cl)ccc2OP(=O)([O-])O)nc1C(C)(C)C.[Na+]` [Compound 128], the “Inhibitory Ratio of NF-κ B Activation(%)” value is, setting by setting: (Drug Concentration 1 μg/mL) greater than 99.9%; (Drug Concentration 10 μg/mL) greater than 99.9%.

`O=C(Nc1cc(C(F)(F)F)ccc1C(F)(F)F)c1cc(Br)cc(Br)c1OC(=O)N1CCOCC1` [Compound 130, 3,5-Dibromo-2-(morpholinocarbonyl)oxy-N-[2,5-bis(trifluoromethyl)phenyl]-benzamide]: where the note is “Drug Concentration 1 μg/mL”, the inhibition at 1 µg/mL turned out to be 18.9%.

Turning to `O=C(Oc1ccccc1C(=O)Nc1cc(C(F)(F)F)ccc1C(F)(F)F)c1ccccc1O` [Compound 131], for the setting “Drug Concentration 1 μg/mL”, the “Inhibitory Ratio of NF-κ B Activation(%)” value is greater than 99.9%.

In the case of `O=C(Nc1cc(C(F)(F)F)ccc1C(F)(F)F)c1ccccc1OC(=O)N1CCOCC1` [Compound 132], the “Inhibitory Ratio of NF-κ B Activation(%)” value (Drug Concentration 1 μg/mL) was 32.3%.

With `O=C(Nc1cc(C(F)(F)F)ccc1Cl)c1cc(Br)ccc1OP(=O)([O-])O.[Na+]` [Compound 136], for the setting “Drug Concentration 1 μg/mL”, the “Inhibitory Ratio of NF-κ B Activation(%)” value is listed as greater than 99.9%.

On to `CC(C)(C)c1ccc(OP(=O)([O-])O)c(C(=O)Nc2cc(C(F)(F)F)cc(C(F)(F)F)c2)c1.[Na+]` [Compound 139], for which the “Inhibitory Ratio of NF-κ B Activation(%)” value (Drug Concentration 1 μg/mL) is listed as 64.3%.

With `O=C(Nc1cc(C(F)(F)F)ccc1C(F)(F)F)c1cc(Br)ccc1OP(=O)([O-])O.[Na+]` [Compound 142], the “Inhibitory Ratio of NF-κ B Activation(%)” value (Drug Concentration 1 μg/mL) is on record as greater than 99.9%.

For `CC(C)(C)c1cc(NC(=O)c2cc(Br)ccc2OP(=O)([O-])O)cc(C(C)(C)C)c1.[Na+]` [Compound 145], the “Inhibitory Ratio of NF-κ B Activation(%)” value (Drug Concentration 1 μg/mL) is reported as 93.1%.

Regarding `COc1cc(NC(=O)c2cc(Br)ccc2OP(=O)([O-])O)cc(C(F)(F)F)c1.[Na+]` [Compound 149], the “Inhibitory Ratio of NF-κ B Activation(%)” value (Drug Concentration 1 μg/mL) was greater than 99.9%.

For the origin of these results see US7626042B2, “O-substituted hydroxyaryl derivatives” (Institute of Medicinal Molecular Design, Inc., priority 2002, dated 2009).
